In US20250268859A1, “OXAFURAMINE, (1R)-N-ETHYL-1-[(2R)-OXOLAN-2-YL]-2-[…], HYDROCHLORIDE AND DERIVATIVES THEREOF FOR TREATING ALZHEIMER'S DISEASE (AD), […] […], […] WITH LEWY BODIES (DLB), MIXED […], FRON[…] DEGENERATION (FTLD), AND PARKINSON'S DISEASE (PD)” (NLS Pharmaceutics AG, priority 2021, published 2025):
Where a name gives a salt, the structure may show the parent alone.

How the values were obtained:
Assay type in all cases: in vivo, C57BL/6J, male
[1] = system: memory (recognition of the familiar object) in mice; test: Novel Object Recognition (NOR) test in mice; conditions: mean, N = 16
Description: The test was carried out in circular boxes (30 cm diameter, 40 cm high). The objects to be discriminated (L≈1≈h≈3-4 cm) differed in both color and shape and were referred as yellow duck and blue lego. They were fixed with a magnet to the floor of the boxes at 5 cm of the wall, 20 cm distant. Apparently, they have no natural significance for mice and they have never been associated with a reinforcement. In order to rule out the possibility of scent traces left on the objects and therefore the dependency of the recognition capacity of mice on the olfactory cue, the objects and the ground of the box were washed with an odorless disinfectant (Sanicid® diluted in water) and dried between each trial. A camcorder was fixed to the ceiling above the box to record the animals' activity. The experiment was analyzed blindly at a later time.
On the week before the test, animals were handled by the experimenter in charge of the experiment in order to be not stressed at the time of testing. For this purpose, the experimenter placed a small amount of litter, and then the mouse on its hand.
The NOR test was completed over five days (see FIG. 1): • Day 1: Habituation trial. Animals were individually placed for a 15-min free exploration session in empty open boxes. • Day 2. Treatment administration and sample trial. […] They were individually placed 30 min after in the apparatus for a 6-min session with two identical objects (Duck, 50% of animals or Lego, 50% of animals). • Day 3. Choice trial. The mice were individually placed for a 6-min session in the apparatus with two objects (Duck and Lego), one of the objects presented in sample trials (termed as familiar objects) and a novel object (Lego, 50% of animals or Duck, 50% of animals).
The sample and choice trials were recorded with the camera located above the apparatus. The time spent by mice in exploring the objects was measured during the sample trial and the choice trial. Exploration of an object was defined as follows: directing the nose to the object at a distance≤2 cm and/or touching it with the nose or forelimbs; turning around or biting the object, or sitting on the object were not considered as exploratory behavior.
• L=exploration time of the left object in the sample trial. • R=exploration time of the right object in the sample trial. • N=exploration time of the new object in the choice trial. • F=exploration time of the familiar object in the choice trial.
• Exploration indices: • ST=L+R=exploration time (left object+right object) in the sample trial. • CT=N+F=exploration time (new object+familiar object) in the choice trial. • Two memory indices: • N-F=difference of exploration time between the new object and the familiar object in the choice trial.
(§1) Statistical analyses: • Read-outs: DI, N-F, ST, CT, N, F • Unpaired Student's t test: Donep 2 group vs. Control group. • One-way ANOVA, Dunnett test: • NLS-12 groups vs. Control group. • NLS-12 groups vs. Donep 2 group. • Read-outs: DI and N-F, for all groups, paired Student's t test, difference vs. 0. • Body weight: one-way ANOVA.

[2] = Body weight of the mice in the NOR study; conditions: Donepezil 2 mg/kg i.p. group; mean, N = 16
Text: as §1

[3] = system: memory (recognition of the familiar object) in mice; test: Novel Object Recognition (NOR) test in mice; conditions: Donepezil 2 mg/kg i.p., 72 h post treatment, mean, N = 16

## COc1cc2c(cc1OC)C(=O)C(CC1CCN(Cc3ccccc3)CC1)C2 (stereo not shown) [Donepezil, Donepezil hydrochloride, reference compound]
[1]; Donepezil 2 mg/kg i.p. 30 min before sample trial, choice trial
  N − F Exploration time novel − familiar object: 4.3 s
[1]; Donepezil 2 mg/kg i.p., 30 min post treatment
  ST Exploration time in the sample trial: 20.2 s
[1]; Donepezil 2 mg/kg i.p., 30 min post treatment, hydrochloride
  ST Exploration time in the sample trial (s): decreased the exploration time during the sample trial
[1]; Donepezil 2 mg/kg i.p., choice trial
  N Exploration time of novel object: 13.1 s
[2]
  BW Body weight: 23.2 g
[3]
  CT Exploration time in the choice trial (s) = N + F: 21.7 s
[3]; hydrochloride
  CT Exploration time in the choice trial (s) = N + F: did not significantly modify the exploration time during the choice trial
